Measured values as given in patent US10519162B2, “6,7-dihydropyrazolo[1,5-α]pyrazin-4(5H)-one compounds and their use as negative allosteric modulators of mGluR2 receptors” (Janssen Pharmaceutica NV, priority 2014, dated 2019).

Legend:
human mGlu2 receptor = molecular target: T1, human mGlu2 receptor (Homo sapiens, UniProt Q14416); assay: [35S]GTPγS binding assay (mGluR2 negative allosteric modulation, glutamate ~EC80 60 μM); format: biochemical; conditions: for Emax: read-out: GTPγS-hmGluR2 anGT Emax; for IC50: membranes from CHO cells transfected with human mGlu2 receptor, glutamate ~EC80 (60 μM), pIC50 = −log IC50 (M), read-out: GTPγS-hmGluR2 anGT pIC50 (converted)
T1 construct: expressed in transfected cells; host or cells: CHO cells
Protocol: 1) [^35S]GTPγS Binding Assay
[^35S]GTPγS Binding Assay
Total reaction volume was 200 μl. […] Membrane-bound radioactivity was counted in a Topcount.

[1] = maximal % inhibition relative to the control glutamate response (EC80 glutamate)

T1 sequence (Q14416 19-872): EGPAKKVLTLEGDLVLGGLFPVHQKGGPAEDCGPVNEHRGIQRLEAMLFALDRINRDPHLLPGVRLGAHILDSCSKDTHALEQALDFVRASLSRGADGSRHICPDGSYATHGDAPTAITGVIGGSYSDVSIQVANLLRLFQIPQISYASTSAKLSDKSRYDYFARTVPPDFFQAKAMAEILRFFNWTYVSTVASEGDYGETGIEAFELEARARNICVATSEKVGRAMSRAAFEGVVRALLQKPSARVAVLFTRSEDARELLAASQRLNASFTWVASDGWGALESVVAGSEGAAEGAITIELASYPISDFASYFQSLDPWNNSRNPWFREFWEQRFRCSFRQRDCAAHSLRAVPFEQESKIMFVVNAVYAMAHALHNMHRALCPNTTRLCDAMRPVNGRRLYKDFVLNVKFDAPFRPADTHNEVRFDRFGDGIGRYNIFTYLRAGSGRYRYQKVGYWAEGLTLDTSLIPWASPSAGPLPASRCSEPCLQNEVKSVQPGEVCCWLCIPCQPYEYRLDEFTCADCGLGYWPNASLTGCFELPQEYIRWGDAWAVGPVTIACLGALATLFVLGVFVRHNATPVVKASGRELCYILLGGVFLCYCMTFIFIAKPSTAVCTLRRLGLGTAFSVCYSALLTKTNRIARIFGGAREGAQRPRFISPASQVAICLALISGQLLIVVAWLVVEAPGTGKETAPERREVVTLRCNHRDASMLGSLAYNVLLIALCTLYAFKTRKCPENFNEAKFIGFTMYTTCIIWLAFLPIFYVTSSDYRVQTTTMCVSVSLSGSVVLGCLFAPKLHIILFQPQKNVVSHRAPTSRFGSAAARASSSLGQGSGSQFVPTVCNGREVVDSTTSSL

| Compound | Emax (human mGlu2 receptor; [1]) [%] | IC50 (human mGlu2 receptor) [M] | melting point [°C] | GTPγS-hmGluR2 anGT Emax (human mGlu2 receptor; [1]) [%] |
| --- | --- | --- | --- | --- |
| C[C@H]1CN(c2ccc(C(F)(F)F)cc2)C(=O)c2c(NC(=O)c3cncc(F)c3)cnn21 [Co. No. 31] | 114 | 7.24e-09 | 185.29 | – |
| COc1nc(N2C[C@H](C)n3ncc(NC(=O)c4ccc(N)nc4)c3C2=O)ccc1C(F)(F)F [Co. No. 33] | 117 | 7.59e-09 | 250.03 | – |
| COc1ccc(F)c(C(=O)Nc2cnn3c2C(=O)N(c2ccc(C(F)(F)F)cc2)C[C@@H]3C)c1 [Co. No. 37] | 116 | 9.12e-09 | 185.41 | – |
| C[C@H]1CN(c2ccc(C(F)F)c(Cl)c2)C(=O)c2c(NC(=O)c3ccc(N)nc3)cnn21 [Co. No. 40] | – | – | 133.34 | 113 |
| COc1ccc(C(=O)Nc2cnn3c2C(=O)N(c2ccc(C(F)(F)F)cc2)C[C@@H]3C)cn1 [Co. No. 42] | 105 | 1.1e-08 | 127.02 | – |
| COc1ncccc1C(=O)Nc1cnn2c1C(=O)N(c1ccc(C(F)(F)F)cc1)C[C@@H]2C [Co. No. 43] | 114 | 1.12e-08 | 213.83 | – |
| COc1ccc(C(=O)Nc2cnn3c2C(=O)N(c2ccc(C(F)(F)F)cc2)C[C@@H]3C)c(F)c1 [Co. No. 44] | 115 | 1.12e-08 | 214.58 | – |
| C[C@H]1CN(c2ccc(C(F)(F)F)cc2)C(=O)c2c(NC(=O)c3ccc(Cl)cn3)cnn21 [Co. No. 46] | 104 | 1.26e-08 | 237.65 | – |
| COc1cc(C(=O)Nc2cnn3c2C(=O)N(c2ccc(C(F)(F)F)cc2)C[C@@H]3C)ccn1 [Co. No. 47] | 101 | 1.29e-08 | 128.68 | – |
| C[C@H]1CN(c2ccc(C(F)(F)F)cc2)C(=O)c2c(NC(=O)c3ccc(F)cn3)cnn21 [Co. No. 48] | 108 | 1.32e-08 | 221.22 | – |
| C[C@H]1CN(c2ccc(C(F)(F)F)cc2)C(=O)c2c(NC(=O)c3ccc(F)cc3)cnn21 [Co. No. 49] | 101 | 1.32e-08 | 119.36 | – |
| C[C@H]1CN(c2ccc(C(F)(F)F)cc2)C(=O)c2c(NC(=O)c3ccnc(N)c3)cnn21 [Co. No. 50] | 104 | 1.38e-08 | 225.63 | – |
| COc1cc(C(=O)Nc2cnn3c2C(=O)N(c2ccc(C(F)(F)F)cc2)C[C@@H]3C)ccc1F [Co. No. 51] | 113 | 1.45e-08 | 140.98 | – |
| Cc1ccc(C(=O)Nc2cnn3c2C(=O)N(c2ccc(C(F)(F)F)cc2)C[C@@H]3C)cc1 [Co. No. 53] | 104 | 1.78e-08 | 198.98 | – |
| Cc1ccc(C(=O)Nc2cnn3c2C(=O)N(c2ccc(C(F)(F)F)cc2)C[C@@H]3C)cn1 [Co. No. 54] | 104 | 1.78e-08 | 175.17 | – |
| C[C@H]1CN(c2ccc(C(F)(F)F)cc2)C(=O)c2c(NC(=O)c3ccncc3)cnn21 [Co. No. 55] | 105 | 2e-08 | 145.26 | – |
| COc1cccc(C(=O)Nc2cnn3c2C(=O)N(c2ccc(C(F)(F)F)c(OC)n2)C[C@@H]3C)c1 [Co. No. 56] | 107 | 2.04e-08 | 160.66 | – |

| Compound | Emax (human mGlu2 receptor; [1]) [%] | IC50 (human mGlu2 receptor) [M] | melting point [°C] | GTPγS-hmGluR2 anGT Emax (human mGlu2 receptor; [1]) [%] |
| --- | --- | --- | --- | --- |
| Cc1cccnc1C(=O)Nc1cnn2c1C(=O)N(c1ccc(C(F)(F)F)cc1)C[C@@H]2C [Co. No. 57] | 103 | 2.04e-08 | 292.16 | – |
| COc1cc(F)ccc1C(=O)Nc1cnn2c1C(=O)N(c1ccc(C(F)(F)F)cc1)C[C@@H]2C [Co. No. 58] | 101 | 2.19e-08 | 240.77 | – |
| COc1cccc(C(=O)Nc2cnn3c2C(=O)N(c2ccc(C(F)(F)F)cc2)C[C@@H]3C)c1F [Co. No. 59] | 110 | 2.24e-08 | 205.32 | – |
| COc1ccnc(C(=O)Nc2cnn3c2C(=O)N(c2ccc(C(F)(F)F)cc2)C[C@@H]3C)c1 [Co. No. 60] | 111 | 2.45e-08 | 227.69 | – |
| C[C@H]1CN(c2ccc(C(F)(F)F)cn2)C(=O)c2c(NC(=O)c3ccc(N)nc3)cnn21 [Co. No. 61] | 103 | 2.45e-08 | 223.46 | – |
| C[C@H]1CN(c2ccc(C(F)(F)F)cc2)C(=O)c2c(NC(=O)c3ncco3)cnn21 [Co. No. 63, N-[(7S)-7-Methyl-4-oxo-5-[4-(trifluoromethyl)phenyl]-6,7-dihydropyrazolo[1,5-a]pyrazin-3-yl]oxazole-2-carboxamide] | 109 | 2.63e-08 | 204.97 | – |
| Cc1ncccc1C(=O)Nc1cnn2c1C(=O)N(c1ccc(C(F)(F)F)cc1)C[C@@H]2C [Co. No. 66] | 104 | 2.75e-08 | 120.37 | – |
| C[C@H]1CN(c2ccc(C(F)(F)F)cc2)C(=O)c2c(NC(=O)c3ccc(N)cn3)cnn21 [Co. No. 68, 5-Amino-N-[(7S)-7-methyl-4-oxo-5-[4-(trifluoromethyl)phenyl]-6,7-dihydropyrazolo[1,5-a]pyrazin-3-yl]pyridine-2-carboxamide] | 107 | 2.82e-08 | 289.4 | – |
| COc1nc(N2C[C@H](C)n3ncc(NC(=O)c4ccccc4)c3C2=O)ccc1C(F)(F)F [Co. No. 70] | 108 | 3.8e-08 | 201.06 | – |
| Cc1cc(C(=O)Nc2cnn3c2C(=O)N(c2ccc(C(F)(F)F)cc2)C[C@@H]3C)on1 [Co. No. 71] | 97 | 3.8e-08 | 243.14 | – |
| Cc1cc(C(=O)Nc2cnn3c2C(=O)N(c2ccc(C(F)(F)F)cc2)C[C@@H]3C)no1 [Co. No. 72] | 99 | 4.27e-08 | 209.27 | – |
| C[C@H]1CN(c2ccc(C(F)(F)F)cc2)C(=O)c2c(NC(=O)CC3CC3)cnn21 [Co. No. 73] | 98 | 4.79e-08 | 152.2 | – |
| C[C@H]1CN(c2ccc(C(F)(F)F)cc2)C(=O)c2c(NC(=O)c3cnc(N)s3)cnn21 [Co. No. 74, 2-Amino-N-[(7S)-7-methyl-4-oxo-5-[4-(trifluoromethyl)phenyl]-6,7-dihydropyrazolo[1,5-a]pyrazin-3-yl]thiazole-5-carboxamide] | 113 | 3.39e-08 | 283.48 | – |
| COc1ccccc1C(=O)Nc1cnn2c1C(=O)N(c1ccc(C(F)(F)F)c(OC)n1)C[C@@H]2C [Co. No. 75] | 103 | 5.37e-08 | 231.11 | – |
| COc1nc(N2C[C@H](C)n3ncc(NC(=O)c4ccccc4)c3C2=O)ccc1Cl [Co. No. 76, N-[(7S)-5-(5-Chloro-6-methoxy-2-pyridyl)-7-methyl-4-oxo-6,7-dihydropyrazolo[1,5-a]pyrazin-3-yl]benzamide] | 106 | 5.89e-08 | 188.77 | – |
| COc1ccc(C(=O)Nc2cnn3c2C(=O)N(c2ccc(C(F)(F)F)c(OC)n2)C[C@@H]3C)cc1 [Co. No. 77] | 103 | 7.76e-08 | 194.9 | – |
| COCc1ccccc1C(=O)Nc1cnn2c1C(=O)N(c1ccc(C(F)(F)F)cc1)C[C@@H]2C [Co. No. 78] | 105 | 5.62e-08 | 88.18 | – |
